By IC50 is commonly meant the concentration that gives 50% inhibition.

The target of one assay is T1, glutathione S-transferase (GST)-fused full-length human Syk protein (Homo sapiens, UniProt P43405).
T1 construct: (GST)-fused full-length human Syk protein; GST (glutathione S-transferase); purchased Carna Biosciences
Description: Syk enzyme assay. Format: biochemical. The conditions noted are these: Syk enzyme assay, Test Example 1; read-out: IC50 of Syk-inhibitory activity. The method, boiled down:
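GST-tagged full-length human Syk (baculovirus) preincubated with compound 15 min at room temperature (pH 7.0, 10 mM MgCl2), then reacted 40 min with 0.4 μM biotinylated peptide substrate and 27 μM ATP (final). Phosphorylation read by HTRF (615/665 nm) after EDTA stop; IC50 reported.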
As to `COc1cc(Nc2nc(NCCc3cnc[nH]3)c(F)cc2C(N)=O)cc(OC)c1` [Example 016-011], the IC50 fell in the range of 100 to 1000 nM.
Take `COc1ccccc1C(=O)Nc1cncc(Nc2nc(NC3CCCCC3N)c(F)cc2C(N)=O)c1` (stereo not drawn) [Example 027-024]: the IC50 is 10 to 50 nM.
Turning to `NC(=O)c1cc(F)c(NC2CCCCC2N)nc1Nc1ccnc(-c2ccc[nH]2)c1` (stereo not drawn) [Example 002-051], the IC50 was less than 10 nM.
Turning to `NC(=O)c1cc(F)c(NC2CCCCC2N)nc1Nc1cncc(NC(=O)c2cc3ccccc3s2)c1` (stereo not drawn) [Example 027-040], the IC50 lay in the range of 10 to 50 nM.
In the case of `CCOc1nc2ccc(Nc3nc(NC4CCCCC4N)c(F)cc3C(N)=O)cc2nc1OCC` (stereo not drawn) [Example 002-120], the IC50 was less than 10 nM.
On the same count and under the same terms, the result for `NC(=O)c1cc(F)c(N[C@@H]2CCCC[C@@H]2N)nc1Nc1cnc(N2CCOCC2)c(-n2ccnn2)c1` [Example 006-534, 6-(((1R,2S)-2-aminocyclohexyl)amino)-5-fluoro-2-((6-morpholino-5-(1H-1,2,3-triazol-1-yl)pyridin-3-yl)amino)nicotinamide] reads 100 to 1000 nM; that for `COc1cc(Nc2nc(NCc3cc4ccccc4[nH]3)c(F)cc2C(N)=O)cc(OC)c1` [Example 016-016], 100 to 1000 nM; that for `Cn1c(C(=O)NCCN2CCOCC2)cc2c(Nc3nc(N[C@@H]4CCCC[C@@H]4N)c(F)cc3C(N)=O)ccnc21` [Example 029-011], 100 to 1000 nM.
On the same count and under the same terms, the result for `NC(=O)c1cc(F)c(N[C@@H]2CCCC[C@@H]2N)nc1Nc1cnc(N2CCOCC2)c2[nH]ccc12` [Example 004-234, 6-(((1R,2S)-2-aminocyclohexyl)amino)-5-fluoro-2-((7-morpholino-1H-pyrrolo[2,3-c]pyridin-4-yl)amino)nicotinamide] reads 10 to 50 nM; that for `NC(=O)c1cc(F)c(N[C@@H]2CCCC[C@@H]2N)nc1Nc1cncc(-n2ccccc2=O)c1` (relative stereo) [Example 004-211, 6-(cis-2-aminocyclohexylamino)-5-fluoro-2-((2-oxo-2H-[1,3′-bipyridin]-5′-yl)amino)nicotinamide], 100 to 1000 nM; that for `NC(=O)c1cc(F)c(NC2CCCCC2N)nc1Nc1ccc2cc(Cl)cnc2c1` (stereo not drawn) [Example 002-087], 10 to 50 nM.
Still for that read-out and setting: the result for `NCCNc1nc(Nc2cccc(C(=O)N3CCCCC3)c2)c(C(N)=O)cc1F` [Example 031-002] reads 100 to 1000 nM; that for `Cc1cccc(-c2cncc(Nc3nc(N[C@@H]4CCCC[C@@H]4N)c(F)cc3C(N)=O)c2)c1` (relative stereo) [Example 004-099, 6-(cis-2-aminocyclohexylamino)-5-fluoro-2-((5-(3-methylphenyl)pyridin-3-yl)amino)-nicotinamide], less than 10 nM; that for `COc1ncc(Nc2nc(N[C@H](CC3CC3)[C@H](C)N)c(F)cc2C(N)=O)cc1-n1nccn1` [Example 006-393, 6-(((2R,3S)-3-amino-1-cyclopropylbutan-2-yl)amino)-5-fluoro-2-((6-methoxy-5-(2H-1,2,3-triazol-2-yl)pyridin-3-yl)amino)nicotinamide], 10 to 50 nM.
On to `Cc1ncc(Nc2nc(N[C@@H]3CCCC[C@@H]3N)c(F)cc2C(N)=O)cc1-n1ccnn1` (relative stereo) [Example 006-152, 6-((cis-2-aminocyclohexyl)amino)-5-fluoro-2-((6-methyl-5-(1H-1,2,3-triazol-1-yl)pyridin-3-yl)amino)nicotinamide], for which the IC50 was in the range of 10 to 50 nM.
Consider `NC(=O)c1cc(F)c(NCC(N)Cc2ccccc2)nc1Nc1ccc2ncccc2c1` (stereo not drawn) [Example 014-003], for which the IC50 is 50 to 100 nM.
Turning to `CCOCCOCCOc1ccc2ccc(Nc3nc(NC4CCCCC4N)c(F)cc3C(N)=O)cc2n1` (stereo not drawn) [Example 002-093], the IC50 is less than 10 nM.
For the compound `CC[C@H](N)[C@@H](CC)Nc1nc(Nc2cncc(F)c2)c(C(N)=O)cc1F` [Example 006-382, 6-(((3R,4S)-4-aminohexan-3-yl)amino)-5-fluoro-2-((5-fluoropyridin-3-yl)amino)nicotinamide], the IC50 was in the range of 10 to 50 nM.
Turning to `CCn1nc(C(C)C)c2cc(Nc3nc(N[C@@H]4CCCC[C@@H]4N)c(F)cc3C(N)=O)ccc21` [Example 006-462, 6-(((1R,2S)-2-aminocyclohexyl)amino)-2-((1-ethyl-3-isopropyl-1H-indazol-5-yl)amino)-5-fluoronicotinamide], the IC50 was less than 10 nM.
For `C[C@H](N)[C@@H](CC1CC1)Nc1nc(Nc2ccc3c(cnn3CC(F)F)c2)c(C(N)=O)cc1F` [Example 006-426, 6-(((2R,3S)-3-amino-1-cyclopropylbutan-2-yl)amino)-2-((1-(2,2-difluoroethyl)-1H-indazol-5-yl)amino)-5-fluoronicotinamide], the IC50 is 100 to 1000 nM.
Still for that read-out and setting: the result for `NC(=O)c1cc(F)c(NC2CCCCC2N)nc1Nc1cncc(-c2cccc3cccnc23)c1` (stereo not drawn) [Example 002-181] reads 50 to 100 nM; that for `NC(=O)c1cc(F)c(NC2CCCCC2N)nc1Nc1cccc2c1cnn2CCN1CCOCC1` (stereo not drawn) [Example 002-027], less than 10 nM; that for `Cc1ccc(Nc2nc(NC[C@H](C)N)c(F)cc2C(N)=O)cn1` [Example 006-095, (S)-6-((2-aminopropyl)amino)-5-fluoro-2-((6-methylpyridin-3-yl)amino)nicotinamide], 100 to 1000 nM.
`NC(=O)c1cc(F)c(NC2CCCCC2N)nc1Nc1cncc(-c2ccc3c(c2)NC(=O)CO3)c1` (stereo not drawn) [Example 002-177]: the IC50 is less than 10 nM.
Consider `CCCC[C@H](CN)Nc1nc(Nc2ccc3c(cnn3CC(F)F)c2)c(C(N)=O)cc1F` [Example 006-421, (R)-6-((1-aminohexan-2-yl)amino)-2-((1-(2,2-difluoroethyl)-1H-indazol-5-yl)amino)-5-fluoronicotinamide], for which the IC50 lay within 50 to 100 nM.
For the compound `COCCn1ccc2c(Nc3nc(N[C@@H]4CCCC[C@@H]4N)c(F)cc3C(N)=O)cc(C(F)(F)F)cc21` [Example 004-088], the IC50 is less than 10 nM.
On the same count and under the same terms, the result for `CCOc1ccc2cc(Nc3nc(N[C@@H]4CCCC[C@@H]4N)c(F)cc3C(N)=O)cnc2c1` (relative stereo) [Example 004-173, 6-(cis-2-aminocyclohexylamino)-2-((7-ethoxyquinolin-3-yl)amino)-5-fluoronicotinamide] reads less than 10 nM; that for `CCOc1cc(Nc2nc(NC3CCCCC3N)c(F)cc2C(N)=O)cc(OCC)n1` (stereo not drawn) [Example 002-061], less than 10 nM; that for `CN1CCN(c2ccc(Nc3nc(NC4CCCCC4N)c(F)cc3C(N)=O)cn2)CC1` (stereo not drawn) [Example 002-021], 10 to 50 nM.
Take `NC(=O)c1cc(F)c(N[C@@H]2CCCC[C@@H]2N)nc1Nc1cncc(-c2ccccc2O)c1` (relative stereo) [Example 004-186, 6-(cis-2-aminocyclohexylamino)-5-fluoro-2-((5-(2-hydroxyphenyl)pyridin-3-yl)amino)nicotinamide]: the 50% inhibitory concentration (IC50) was less than 10 nM.
For the compound `COc1ncc(Nc2nc(NC3CCCCC3N)c(F)cc2C(N)=O)cc1-c1ccccc1F` (stereo not drawn) [Example 002-149], the IC50 lay within 10 to 50 nM.
On to `NC(=O)c1cc(F)c(N[C@@H]2CCCC[C@@H]2N)nc1Nc1ccnc2c1ccn2-c1ccccc1` [Example 004-038], for which the IC50 was less than 10 nM.
In the case of `NC(=O)c1cc(F)c(NC2CCCCC2N)nc1Nc1cncc(C2CCCC2)c1` (stereo not drawn) [Example 002-094], the IC50 is 10 to 50 nM.
For `COc1cc(Nc2nc(N[C@@H](C(N)=O)C(C)(C)C)c(F)cc2C(N)=O)cc(OC)c1` [Example 033-005], the IC50 lay within 100 to 1000 nM.
`NC(=O)c1cc(F)c(NC2CCCCC2N)nc1Nc1cnc2oc3ccccc3c2c1` (stereo not drawn) [Example 002-195]: the IC50 is less than 10 nM.
Regarding `NC(=O)c1cc(F)c(NC2CCCCC2N)nc1Nc1cnc(N2CCOCC2)c(-c2ccoc2)c1` (stereo not drawn) [Example 002-072], the IC50 was 10 to 50 nM.
Turning to `NC(=O)c1cc(F)c(NCc2cnc[nH]2)nc1Nc1ccc2ncccc2c1` [Example 012-015], the IC50 lay within 50 to 100 nM.
On to `NC(=O)c1cc(F)c(NC2CCCCC2N)nc1Nc1ccc(-n2nccn2)nc1` (stereo not drawn) [Example 002-161], for which the IC50 lay in the range of 50 to 100 nM.
On to `NC(=O)c1cc(F)c(N[C@@H]2CCCC[C@@H]2N)nc1Nc1ccn2ccnc2c1` (relative stereo) [Example 004-131, 6-(cis-2-aminocyclohexylamino)-5-fluoro-2-((imidazo[1,2-a]pyridin-7-yl)amino)-nicotinamide], for which the IC50 lay in the range of 10 to 50 nM.
On to `NC(=O)c1cc(F)c(NC2CCCCC2N)nc1Nc1ccnc(-c2cn[nH]c2)c1` (stereo not drawn) [Example 002-070], for which the IC50 is less than 10 nM.
In the case of `Cc1cncc(Nc2nc(NC[C@@H](N)c3ccccc3)c(F)cc2C(N)=O)c1` [Example 006-118, (S)-6-((2-amino-2-phenylethyl)amino)-5-fluoro-2-((5-methylpyridin-3-yl)amino)nicotinamide], the IC50 was 100 to 1000 nM.
The same measure, in the same setting: the result for `COCCOc1ccccc1-c1cncc(Nc2nc(N[C@@H]3CCCC[C@@H]3N)c(F)cc2C(N)=O)c1` (relative stereo) [Example 004-185, 6-(cis-2-aminocyclohexylamino)-5-fluoro-2-((5-(2-(2-methoxyethoxy)phenyl)pyridin-3-yl)amino)nicotinamide] reads less than 10 nM.
On to `NC(=O)c1cc(F)c(NC2CCCCC2N)nc1Nc1ccc2c(cnn2Cc2ccccc2)c1` (stereo not drawn) [Example 002-036], for which the IC50 lay in the range of 50 to 100 nM.

Still in this assay, the particulars now being: read-out: Syk-inhibitory activity (IC50).
`Cc1nc2ccc(Nc3nc(NCCN)c(F)cc3C(N)=O)cc2s1` [Example 6-21, 6-((2-aminoethyl)amino)-5-fluoro-2-((2-methylbenzo[d]thiazol-6-yl)amino)nicotinamide]: the IC50 was no more than 1000 nM.
For the compound `NCCNc1nc(Nc2cccc(C(=O)NC3CCCCC3)c2)c(C(N)=O)cc1F` [Example 31-3, 6-((2-aminoethyl)amino)-2-((3-(cyclohexylaminocarbonyl)phenyl)amino)-5-fluoronicotinamide], the IC50 was no more than 1000 nM.

For the origin of these results see patent US8895585B2, “Nicotinamide derivative or salt thereof” (FUJIFILM Corporation, priority 2010, dated 2014).
